# Results from paper PMC11772769, “Selective cargo and membrane recognition by SNX17 regulates its interaction with Retriever” (EMBO Reports, 2024).
# Substitutions are numbered along the chain they refer to. Where two headings read alike, the source gives them in different places. Where no end group is shown, it is not given here.
# What was measured:
# MBP = MBP (Escherichia coli, UniProt P0AEX9); experiment: Fluorescence anisotropy, MBP negative control; assay type: binding
# Procedure: (§1) Lyophilized peptides were resuspended in 100 mM Hepes pH 8.0 at 5 mg/ml and further diluted in the assay buffer (50 mM Hepes pH 7.5, 300 mM NaCl, and 1 mM DTT). […] The mixture was incubated at 25 °C for at least 30 min and then transferred to 96 Flat Black plates. Fluorescence anisotropy was measured at 25 °C using Spark 10M Plate Reader (Tecan) with a 485/20 excitation filter and a 535/35 emission filter. The dissociation constants were calculated in GraphPad Prism by nonlinear regression fitting of the experimental data to a one-site total binding model. The final KD measurement is the mean of at least two independent experiments.
# MBP-SNX17W321A = target: T1, MBP-SNX17W321A (Homo sapiens, UniProt Q15036, W321A); experiment: Fluorescence anisotropy binding of 5-FAM peptides to MBP-SNX17 W321A
# T1 construct: M protein marker, R Retriever complex, FL full-length; His (N, cleaved yes); made in house; host or cells: Escherichia coli BL21(DE3)
# T1 sequence (Q15036 1-470 W321A): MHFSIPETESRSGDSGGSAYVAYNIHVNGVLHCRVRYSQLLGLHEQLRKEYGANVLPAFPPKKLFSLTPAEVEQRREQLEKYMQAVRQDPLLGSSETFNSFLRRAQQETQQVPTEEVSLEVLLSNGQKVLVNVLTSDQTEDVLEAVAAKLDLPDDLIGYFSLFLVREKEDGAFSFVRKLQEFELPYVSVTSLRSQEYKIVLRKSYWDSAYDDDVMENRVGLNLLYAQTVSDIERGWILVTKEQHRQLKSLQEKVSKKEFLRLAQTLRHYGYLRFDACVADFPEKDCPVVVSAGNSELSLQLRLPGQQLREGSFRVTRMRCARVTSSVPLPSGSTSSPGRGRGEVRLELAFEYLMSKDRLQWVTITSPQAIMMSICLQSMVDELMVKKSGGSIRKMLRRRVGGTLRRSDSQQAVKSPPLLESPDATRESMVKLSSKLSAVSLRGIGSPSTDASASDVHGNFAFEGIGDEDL
# Procedure: as §1
# MBP-SNX17 WT = target: T2, MBP-SNX17 WT (Homo sapiens, UniProt Q15036); experiment: Fluorescence anisotropy binding of 5-FAM peptides to MBP-SNX17 wild-type
# T2 construct: M protein marker, R Retriever complex, FL full-length; His (N, cleaved yes); made in house; host or cells: Escherichia coli BL21(DE3)
# T2 sequence (Q15036 1-470): T1 sequence (Q15036 1-470 W321A) with A321W
# Procedure: as §1
# [1] = target: T3, SNX17FERM-CT (amino acids 109-470) (Homo sapiens, UniProt Q15036); experiment: Fluorescence anisotropy binding of 5-FAM cargo peptides to SNX17FERM-CT; settings: read-out: KD SNX17FERM-CT
# T3 construct: His-Sumo3 (N, cleaved yes); made in house; host or cells: Escherichia coli BL21(DE3)
# T3 sequence (Q15036 109-470): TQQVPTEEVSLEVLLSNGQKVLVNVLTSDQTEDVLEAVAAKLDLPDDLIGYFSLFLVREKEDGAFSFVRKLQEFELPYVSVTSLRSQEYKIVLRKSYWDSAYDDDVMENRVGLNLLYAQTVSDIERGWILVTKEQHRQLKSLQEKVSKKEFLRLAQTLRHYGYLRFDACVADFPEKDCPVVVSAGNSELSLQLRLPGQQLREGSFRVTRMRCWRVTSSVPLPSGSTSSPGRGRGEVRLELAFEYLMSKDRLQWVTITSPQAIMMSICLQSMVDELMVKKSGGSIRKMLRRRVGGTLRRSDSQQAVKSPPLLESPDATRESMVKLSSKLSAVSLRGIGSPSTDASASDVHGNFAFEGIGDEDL
# Procedure: as §1
# MBP-SNX17V380D = target: T4, MBP-SNX17V380D (Homo sapiens, UniProt Q15036, V380D); experiment: Fluorescence anisotropy binding of 5-FAM peptides to MBP-SNX17 V380D
# T4 construct: M protein marker, R Retriever complex, FL full-length; His (N, cleaved yes); made in house; host or cells: Escherichia coli BL21(DE3)
# T4 sequence (Q15036 1-470 V380D): T1 sequence (Q15036 1-470 W321A) with A321W, V380D
# Procedure: as §1
# MBP-SNX17 L470G = target: T5, MBP-SNX17 L470G (Homo sapiens, UniProt Q15036, L470G); experiment: Fluorescence anisotropy binding of 5-FAM cargo peptides to MBP-SNX17 L470G
# T5 construct: M protein marker, R Retriever complex, FL full-length; His (N, cleaved yes); made in house; host or cells: Escherichia coli BL21(DE3)
# T5 sequence (Q15036 1-470 L470G): T1 sequence (Q15036 1-470 W321A) with A321W, L470G
# Procedure: as §1, with “The peptides used for binding assays were synthesized with an N-terminal 5-Carboxyfluorescein (FAM) and HPLC purified (≥95%) by GenScript. Lyophilized” for “Lyophilized”
# VPS35L-VPS29 = target: T6, VPS35L-VPS29 (Homo sapiens, UniProt Q7Z3J2+Q9UBQ0); experiment: Fluorescence anisotropy binding of 5-FAM SNX17CT-18 to VPS35L-VPS29; settings: 0.1 μM 5-FAM peptide, pH 7.5, 300 mM NaCl, 25 °C, two technical replicates (Fig. 3D)
# T6 construct: His (N, cleaved yes); made in house; host or cells: High Five insect cells (baculovirus)
# Procedure: as §1
# VPS29 = target: T7, VPS29 (Homo sapiens, UniProt Q9UBQ0); experiment: Fluorescence anisotropy binding of 5-FAM SNX17CT-18 to VPS29; settings: 0.1 μM 5-FAM peptide, pH 7.5, 300 mM NaCl, 25 °C, two technical replicates (Fig. 3D)
# T7 construct: GST (N, cleaved yes); made in house; host or cells: Escherichia coli BL21(DE3)
# Procedure: as §1
# VPS26C = target: T8, VPS26C (Homo sapiens, UniProt O14972); experiment: Fluorescence anisotropy binding of 5-FAM SNX17CT-18 to VPS26C; settings: 0.1 μM 5-FAM peptide, pH 7.5, 300 mM NaCl, 25 °C, two technical replicates (Fig. 3D)
# T8 construct: His-Sumo3 (N, cleaved yes); made in house; host or cells: Escherichia coli BL21(DE3)
# Procedure: as §1
compound,measurement,setting,value
MNVEIGNPTYKMYE [LRP1 14-mer],Kd,"MBP; 0.1 μM 5-FAM peptide, pH 7.5, 300 mM NaCl, 25 °C (Fig. EV3B), read-out: KD MBP (negative control)",> 32 µM
same,Kd,"MBP; 5-FAM peptide, replicate Y1 (Fig. 4E source data), read-out: KD MBP",> 32 µM
same,Kd,"MBP; 5-FAM peptide, replicate Y2 (Fig. 4E source data), read-out: KD MBP",> 32 µM
same,Kd,"MBP; 5-FAM peptide, replicate Y3 (Fig. 4E source data), read-out: KD MBP",> 32 µM
same,Kd,MBP-SNX17W321A,> 32 µM
same,Kd,"MBP-SNX17W321A; read-out: KD MBP-SNX17W321A, fluorescence anisotropy, 5-FAM peptide, Bmax fixed at 240, replicate Y2 (Fig. 4E source data)",> 32 µM
same,Kd,MBP-SNX17 WT,3 µM
same,Kd,[1],2.23 µM
same,Kd,"MBP-SNX17V380D; 0.1 μM 5-FAM peptide, pH 7.5, 300 mM NaCl, 25 °C, one-site total binding, Bmax fixed at 240, three biological replicates (Fig. 4E)",> 32 µM
same,Kd,"MBP-SNX17V380D; 5-FAM peptide, Bmax fixed at 240, replicate Y1 (Fig. 4E source data), read-out: KD MBP-SNX17V380D",> 32 µM
same,Kd,"MBP-SNX17V380D; 5-FAM peptide, Bmax fixed at 240, replicate Y2 (Fig. 4E source data), read-out: KD MBP-SNX17V380D",> 32 µM
same,Kd,"MBP-SNX17V380D; 5-FAM peptide, Bmax fixed at 240, replicate Y3 (Fig. 4E source data), read-out: KD MBP-SNX17V380D",> 32 µM
same,Kd,MBP-SNX17 L470G,2.8 ± 0.2 µM
QQNGYENPTYKFFE [APP 14-mer],Kd,[1],19.1 µM
CC[C@H](C)[C@H](NC(=O)CNC(=O)[C@H](CCC(=O)O)NC(=O)[C@H](Cc1ccccc1)NC(=O)[C@H](C)NC(=O)[C@H](Cc1ccccc1)NC(=O)[C@H](CC(N)=O)NC(=O)CNC(=O)[C@H](Cc1c[nH]cn1)NC(=O)[C@@H](NC(=O)[C@H](CC(=O)O)NC(=O)[C@H](CO)NC(=O)[C@H](C)NC(=O)c1ccc2c(c1)C(=O)OC21c2ccc(O)cc2Oc2cc(O)ccc21)C(C)C)C(=O)NCC(=O)N[C@@H](CC(=O)O)C(=O)N[C@@H](CCC(=O)O)C(=O)N[C@@H](CC(=O)O)C(=O)N[C@@H](CC(C)C)C(=O)O [SNX17CT-18],KD VPS35L-VPS29,VPS35L-VPS29,weak interaction
same,KD VPS29,VPS29,no discernible binding
same,KD VPS26C,VPS26C,no discernible binding
same,KD MBP-SNX17 WT,"MBP-SNX17 WT; fluorescence anisotropy, 0.1 μM 5-FAM peptide, pH 7.5, 300 mM NaCl, 25 °C, one-site total binding, Bmax fixed at 240, mean ± SD of three biological replicates (Fig. 4E)",binds weakly
KWDTGENPIYKSAV [ITGB1 P-14-mer],Kd,[1],72.5 µM
